Our source for the IC50, Ratio IC50 and Activity values is ChEMBL document CHEMBL1255562, “6,7-Dihydroxy-4-phenylcoumarin as inhibitor of aldose reductase 2” (Bioorg Med Chem Lett, 2010).

Usually IC50 stands for the midpoint of a concentration-inhibition curve.

The nature of assay [1]: Inhibition kidney aldose reductase 2 by spectrophotometric analysis.
A short description of assay [2]: Selectivity index, ratio of IC50 for human recombinant […] to IC50 for kidney aldose reductase 2.
A short description of assay [3]: Selectivity index, ratio of IC50 for sorbitol dehydrogenase to IC50 for kidney aldose reductase 2.
For the next assay, the target named is T1, Sorbitol dehydrogenase (Homo sapiens, UniProt Q00796).
T1 sequence (Q00796 whole entry): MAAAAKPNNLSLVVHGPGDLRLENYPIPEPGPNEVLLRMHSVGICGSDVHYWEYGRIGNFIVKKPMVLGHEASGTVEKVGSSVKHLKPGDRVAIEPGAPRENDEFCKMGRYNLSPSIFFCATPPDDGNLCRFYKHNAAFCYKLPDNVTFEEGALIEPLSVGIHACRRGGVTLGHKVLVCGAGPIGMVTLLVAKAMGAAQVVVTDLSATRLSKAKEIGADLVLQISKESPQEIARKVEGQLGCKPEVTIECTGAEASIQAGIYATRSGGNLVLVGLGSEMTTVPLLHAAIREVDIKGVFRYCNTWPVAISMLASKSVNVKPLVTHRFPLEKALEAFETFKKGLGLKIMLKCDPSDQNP
As to the kind of experiment: Inhibition sorbitol dehydrogenase by spectrophotometric analysis.

Assay [4] has as its target Aldo-keto reductase family 1 member B1 (Homo sapiens, UniProt P15121). The assay is described as follows: Inhibition human recombinant […] by spectrophotometric analysis.
The species entered for the next assay is Rattus norvegicus. As to the kind of experiment: Reduction of galactitol accumulation in Wistar rat lens after 24 hrs. In kind it is functional, tissue-based. The conditions noted are these: Lens of camera-type eye.

A value given as a limit tells only on which side of the number the result lay.

Take `O=C(O)Cc1cc(=O)oc2cc(O)ccc12`: the IC50 in assay [1] was determined as 142 µM; against Sorbitol dehydrogenase, 163 µM; in assay [4] it was 20.8 µM. Besides, the Ratio IC50 turned out to be 0.15 in assay [2] and 1.15 in assay [3].
Take `O=C(O)Cc1cc(=O)oc2cc(O)c(O)cc12`: the figures for the half-inhibitory concentration (IC50) (in assay [1]; against Sorbitol dehydrogenase; in assay [4]) were 53.4 µM, 335 µM and 63.3 µM, respectively. The Ratio IC50 in assay [2] worked out at 1.19; in assay [3] it was 6.27.
Take `O=c1cc(-c2ccccc2)c2cc(O)c(O)cc2o1`: the IC50 in assay [1] was determined as 9.6 µM; against Sorbitol dehydrogenase, 288 µM; in assay [4], 66.3 µM. Moreover, the Ratio IC50 turned out to be 6.9 in assay [2] and 30 in assay [3]. For the same compound, the Activity result in the assay listed under Rattus norvegicus is “Dose-dependent effect”.
For the compound `O=c1cc(-c2ccccc2)c2ccc(O)cc2o1`, the values for the IC50 (in assay [1]; against Sorbitol dehydrogenase; in assay [4]) were 36.7 µM, 70.7 µM and 2.4 µM, respectively. The values for the Ratio IC50 in assay [2] and in assay [3] were 0.07 and 1.93, respectively.
In the case of `CC(/C=C1\SC(=S)N(CC(=O)O)C1=O)=C\c1ccccc1`, the IC50 in assay [1] came out at 1.4 µM; against Sorbitol dehydrogenase, 67.7 µM.
For `O=c1oc2ccccc2cc1O` [3-HYDROXYCOUMARIN], the IC50 in assay [1] turned out to be 172 µM; on Sorbitol dehydrogenase it was 106 µM; in assay [4], 62 µM. The Ratio IC50 in assay [2] worked out at 0.35; in assay [3], 0.62.
The matching figures for `O=c1cc(O)c2ccccc2o1` [4-HYDROXYCOUMARINS]: 40.5 µM, over 400 µM, over 400 µM, over 9.88 and over 9.88.
The matching figures for `Cc1cc(=O)oc2cc(O)c(O)cc12` [4-METHYLESCULETIN]: 38.3 µM, 212 µM, 64.4 µM, 1.68 and 5.54.
The matching figures for `O=c1ccc2cc(O)ccc2o1` [6-HYDROXYCOUMARIN]: 156 µM, over 400 µM, 171 µM, 1.1 and over 2.56.
Take `O=c1ccc2ccccc2o1` [COUMARIN]: the half-inhibitory concentration (IC50) in assay [1] is over 400 µM; against Sorbitol dehydrogenase, over 400 µM; in assay [4] it was over 500 µM.
On to `O=c1ccc2cc(O)c(O)cc2o1` [ESCULETIN], for which the IC50 in assay [1] worked out at 36.5 µM; against Sorbitol dehydrogenase, 82.9 µM; in assay [4], 67.2 µM. Moreover, the results for the Ratio IC50 in assay [2] and in assay [3] were 1.84 and 2.27, respectively.
As for `COc1ccc2ccc(=O)oc2c1` [HERNIARIN], at Sorbitol dehydrogenase, the IC50 amounted to 124 µM.
As to `Cc1cc(=O)oc2cc(O)ccc12` [HYMECROMONE], the IC50 in assay [1] amounted to 89.9 µM; against Sorbitol dehydrogenase, 153 µM; in assay [4], 24.5 µM. For the same compound, the results for the Ratio IC50 in assay [2] and in assay [3] were 0.27 and 1.7, respectively.
On the same counts, the results for `COc1cc2oc(=O)ccc2cc1O` [ISOSCOPOLETIN] are 101 µM, over 250 µM, 56.2 µM, 0.56 and over 2.48.
The matching figures for `COc1cc2ccc(=O)oc2cc1O` [SCOPOLETIN]: 46 µM, 137 µM, 74.4 µM, 1.62 and 2.98.
Regarding `O=c1ccc2ccc(O)cc2o1` [UMBELLIFERONE], the concentration for half-maximal inhibition (IC50) in assay [1] came to 85.7 µM; at Sorbitol dehydrogenase, 120 µM; in assay [4] it was 22.9 µM. The Ratio IC50 in assay [2] came out at 0.27; in assay [3], 1.4.
